How the values were obtained:
MLL1-WDR5 PPI = MLL1-WDR5 PPI (Homo sapiens (Human), UniProt P61964); test: fluorescent probe assay of MLL1-WDR5 protein-protein interaction inhibition; format: binding; details: fluorescent probe based on MLL1 peptide, incubation 0.5 hrs, read-out: MLL1-WDR5 PPI inhibiting activity IC50
Procedure: In the present disclosure, a fluorescent molecular probe was constructed based on a MLL1 peptide fragment binding to WDR5, for use as a method for study on an aniline compound interfering with WDR5 protein-protein interaction, to determine an inhibition rate of the aniline compound at various concentrations, and then compute the IC50 value. Specific experimental steps: 20 μL of WDR5 protein, 20 μL of a fluorescent probe, and 20 μL of a compound of different concentration gradients were added to a 384-well plate respectively. After incubation for 0.5 hrs, the fluorescence was read on a multifunctional microplate reader at an excitation wavelength of 485 nm and an emission wavelength of 535 nm, to compute the mP value. The inhibition rate was computed as per the formula below, and then the IC50 value was computed using GraphPad software.

[1] = system: methylation level of H3K4; test: inhibition of the methylation level of H3K4 (methyltransferase activity); format: biochemical
[2] = system: MV4-11 human acute mononuclear leukemia cells; test: anti-proliferative activity against leukemia cells MV4-11; format: cell-based; details: Homo sapiens, MV4-11, MV4-11 cells; read-out: GI50 (MV-411)
From the text: (§1) Some compounds of the present disclosure have also been tested for the antiproliferative activity against leukemia cells.

[3] = system: Molm-13 human acute myeloid leukemia cells; test: anti-proliferative activity against leukemia cells Molm-13; format: cell-based; details: Homo sapiens, MOLM-13, Molm-13 cells
From the text: as §1

Compound | IC50 (MLL1-WDR5 PPI) | Whether the methylation level of H3K4 was inhibited [1] | GI50 [2] | GI50 [3]
CC(C)NC(=O)c1ccc(-c2ccc(N3CCN(C)CC3)c(Nc3ncnc(Cl)c3N)c2)cc1 [Example 31, 3″-((5-amino-6-chloropyrimidin-4-yl)amino)-N-isopropyl-4″-(4-methylpiperazin-1-yl)-[1,1′-biphenyl]-4-carboxamide] | 0.46 µM | Yes | 10.5 µM | 18.8 µM
CN1CCN(c2ccc(-c3ccc(N)cc3)cc2Nc2ncnc(Cl)c2N)CC1 [Example 32, N^4-(4′-amino-4-(4-methylpiperazin-1-yl)-[1,1′-biphenyl]-3-yl)-6-chloropyrimidine-e-4,5-diamine] | 0.691 µM | Yes | 40 µM | 27.2 µM
CN1CCN(c2ccc(-c3ccc(NC(=O)C4CCOCC4)cc3)cc2Nc2ncnc(Cl)c2N)CC1 [Example 33, N-(3″-((5-amino-6-chloropyrimidin-4-yl)amino)-4″-(4-methylpiperazin-1-yl)-[1,1′-biphenyl]-4-yl)tetrahydro-2H-pyran-4-carboxamide] | 0.489 µM | Yes | 25.9 µM | 22.7 µM
CN1CCC(C(=O)Nc2ccc(-c3ccc(N4CCN(C)CC4)c(Nc4ncnc(Cl)c4N)c3)cc2)CC1 [Example 34, N-(3″-((5-amino-6-chloropyrimidin-4-yl)amino)-4″-(4-methylpiperazin-1-yl)-[1,1′-biphenyl]-4-yl)-1-methylpiperidin-4-carboxamide] | 0.287 µM | Yes | 23.2 µM | 20.8 µM
CN1CCN(c2ccc(-c3ccc(NC(=O)C4CCCCC4)cc3)cc2Nc2ncnc(Cl)c2N)CC1 [Example 35, N-(3″-((5-amino-6-chloropyrimidin-4-yl)amino)-4″-(4-methylpiperazin-1-yl)-[1,1′-biphenyl]-4-yl)cyclohexanecarboxamide] | 0.372 µM | Yes | 2.07 µM | 6.16 µM
CCCC(=O)Nc1ccc(-c2ccc(N3CCN(C)CC3)c(Nc3ncnc(Cl)c3N)c2)cc1 [Example 36, N-(3″-((5-amino-6-chloropyrimidin-4-yl)amino)-4″-(4-methylpiperazin-1-yl)-[1,1′-biphenyl]-4-yl)butyramide] | 0.261 µM | Yes | 9.32 µM | 12.5 µM
CN1CCN(c2ccc(-c3cccc(N)c3)cc2Nc2ncnc(Cl)c2N)CC1 [Example 39, N-(3′-amino-4-(4-methylpiperazin-1-yl)-[1,1′-biphenyl]-3-yl)-6-chloropyrimidine-4,5-diamine] | 0.675 µM | Yes | 32.2 µM | 28.6 µM
CN1CCN(c2ccc(-c3cccc(NC(=O)C4CCOCC4)c3)cc2Nc2ncnc(Cl)c2N)CC1 [Example 40, N-(3″-((5-amino-6-chloropyrimidin-4-yl)amino)-4″-(4-methylpiperazin-1-yl)-[1, 1′-biphenyl]-3-yl)tetrahydro-2H-pyran-4-carboxamide] | 0.328 µM | Yes | 28.4 µM | 26.2 µM
CN1CCC(C(=O)Nc2cccc(-c3ccc(N4CCN(C)CC4)c(Nc4ncnc(Cl)c4N)c3)c2)CC1 [Example 41, N-(3″-((5-amino-6-chloropyrimidin-4-yl)amino)-4″-(4-methylpiperazin-1-yl)-[1,1′-biphenyl]-3-yl)-1-methylpiperidin-4-carboxamide] | 0.329 µM | Yes | 25.8 µM | 24.4 µM
COC(=O)c1cn(-c2ccc(N3CCN(C)CC3)c(Nc3ncnc(Cl)c3N)c2)nn1 [Example 46, Methyl 1-(3-((5-amino-6-chloropyrimidin-4-yl)amino)-4-(4-methylpiperazin-1-yl)phenyl)-1H-1,2,3-triazole-4-carboxylate] | 0.865 µM | Yes | 22.4 µM | 11.7 µM
CN1CCN(c2ccc(-n3cc(C(=O)N4CCOCC4)nn3)cc2Nc2ncnc(Cl)c2N)CC1 [Example 47, (1-(3-((5-amino-6-chloropyrimidin-4-yl)amino)-4-(4-methylpiperazin-1-yl)phenyl)-1H-1,2,3-triazole-4-yl)(morpholino)methanone] | 0.24 µM | Yes | 10.6 µM | 14.7 µM

The next lines start with the values.

IC50 (MLL1-WDR5 PPI) | Whether the methylation level of H3K4 was inhibited [1] | GI50 [2] | GI50 [3] | Compound
0.652 µM | Yes | 20.8 µM | 26 µM | CN1CCN(C(=O)c2ccc(-c3ccc(N4CCN(C)CC4)c(Nc4ncnc(Cl)c4N)c3)c(F)c2)CC1 [Example 38, (3″-((5-amino-6-chloropyrimidin-4-yl)amino)-2-fluoro-4″-(4-methylpiperazin-1-yl)-[1,1′-biphenyl]-4-yl)(4-methylpiperazin-1-yl)methanone]
0.24 µM | Yes | 17.5 µM | 16.2 µM | CN1CCN(c2ccc(-c3ccc(C(=O)N(C)C)cc3)c(F)c2Nc2ncnc(Cl)c2N)CC1 [Example 54, 3″-((5-amino-6-chloropyrimidin-4-yl)amino)-2′-fluoro-N,N-dimethyl-4″-(4-methylpiperazin-1-yl)-[1,1′-biphenyl]-4-carboxamide]
0.117 µM | Yes | 22.5 µM | 28.9 µM | CN1CCN(c2ccc(-c3ccc(C(=O)N4CCOCC4)cc3)c(F)c2Nc2ncnc(Cl)c2N)CC1 [Example 55, (3″-((5-amino-6-chloropyrimidin-4-yl)amino)-2′-fluoro-4″-(4-methylpiperazin-1-yl)-[1,1′-biphenyl]-4-yl)(morpholino)methanone]
0.102 µM | Yes | 9.04 µM | 8.43 µM | CN1CCN(c2ccc(-c3ccc(C(=O)NCCN4CCOCC4)cc3)c(F)c2Nc2ncnc(Cl)c2N)CC1 [Example 56]
0.069 µM | Yes | 22.3 µM | 17.6 µM | CN1CCN(c2ccc(-c3ccc(C(=O)NCCCN4CCOCC4)cc3)c(F)c2Nc2ncnc(Cl)c2N)CC1 [Example 57]
0.112 µM | Yes | 19.5 µM | 20.3 µM | CCN1CCN(C(=O)c2ccc(-c3ccc(N4CCN(C)CC4)c(Nc4ncnc(Cl)c4N)c3F)cc2)CC1 [Example 58, (3″-((5-amino-6-chloropyrimidin-4-yl)amino)-2′-fluoro-4″-(4-methylpiperazin-1-yl)-[1,1′-biphenyl]-4-yl)(4-ethylpiperazin-1-yl)methanone]
0.176 µM | Yes | 26.4 µM | 31.2 µM | CN1CCN(c2ccc(-c3ccc(NC(=O)C4CCOCC4)cc3)c(F)c2Nc2ncnc(Cl)c2N)CC1 [Example 59, N-(3″-((5-amino-6-chloropyrimidin-4-yl)amino)-2′-fluoro-4″-(4-methylpiperazin-1-yl)-[1,1′-biphenyl]-4-yl)tetrahydro-2H-pyran-4-carboxamide]

Source: patent US12453731B2, “Aniline-based WDR5 protein-protein interaction inhibitor, and preparation method and use thereof” (CHINA PHARMACEUTICAL UNIVERSITY, priority 2019, dated 2025)
